This note sets out measurements from patent US7105531B2, “Tricyclic protein kinase inhibitors” (WYETH, priority 1999, dated 2006).

The target of data set [1] is T1, recombinant human MEK 1 (MAPKK) and recombinant human ERK2 (MAPK) (Homo sapiens, UniProt P28482+Q02750).
T1 construct: GST
Kind of data set: Mitogen Activated Protein Kinase (MAPK) coupled Mek-Erk test procedure. The class given is biochemical. How it is done:
To evaluate inhibitors of the MAP (mitogen activated protein) kinase a two component coupled standard pharmacological test procedure, which measures phosphorylation of a serine/threonine residue in an appropriate sequence in the substrate in the presence and absence of a putative inhibitor, is used. Recombinant human MEK 1 (MAPKK) is first used to activate recombinant human ERK2 (MAPK) and the activated MAPK (ERK) is incubated with substrate (myelin basic protein peptide (MBPP) or Myc peptide) in the presence of ATP, Mg^+2 and radiolabeled ^33P ATP. The phosphorylated peptide is captured on a P 81 phosphocellulose filter (paper filter or embedded in microtiter plate) washed and counted by scintillation methods.
The peptide substrates used in the assay are MBPP, peptide substrate ([…]), or synthetic Myc substrate, ([…].5 TFA). The recombinant enzymes used are prepared as GST fusion proteins of human ERK 2 and human MEK 1. Inhibitor samples are prepared as 10× stocks in 10% DMSO and an appropriate aliquot is used to deliver either 10 ug/ml for a single point screening dose or 100 to 0.0001 uM final concentration for a dose response curve. Final DMSO concentrations are less than or equal to 1%.
The reaction is run as follows in 50 mM Tris kinase buffer, pH 7.4 in a reaction volume of 50 ul. The appropriate volume of kinase buffer and inhibitor sample is added to the tube. Appropriate dilution of enzyme is delivered to give 2–5 ug recombinant MAPK (Erk) per tube. The inhibitor is incubated with MAPK (Erk) for 30 min at 0 deg. C. Recombinant Mek (MAPKK) (0.5–2.5 ug) or fully activated Mek (0.05–0.1 units) is added to activate the Erk and incubated for 30 min at 30° C. Then substrate and γ^33P ATP are added to give a final concentration of 0.5–1 mM MBPP or 250–500 uM Myc; 0.2–0.5 uCi gamma P 33 ATP/tube; 50 μM ATP final concentration. Samples are incubated at 30° C. for 30 minutes and the reaction is stopped by adding 25 μl of ice cold 10% trichloroacetic acid (TCA). After samples are chilled on ice for 30 min. 20 μl of sample is transferred onto P 81 phosphocellulose filter. Filter papers are washed 2 times with a large volume of 1% acetic acid, then 2 times with water. The filters are briefly air dried before addition of scintillant and samples are counted in the appropriate scintillation counter set up for reading ^33P isotope. Samples include a positive control (activated enzyme plus substrate); a no enzyme control; a no substrate control; samples with different concentrations of putative inhibitor, and samples with reference inhibitors (other active compounds or non-specific inhibitors such as staurosporine or K252 B).
The raw data is captured as cpm. Sample replicates are averaged and corrected for background count. Mean cpm data is tabulated by group and % inhibition by a test compound is calculated as (corrected cpm control−corrected. cpm sample/control)×100=% inhibition).

The target of another data set is T2, p60^c-src (Src) (Homo sapiens, UniProt P12931).
T2 construct: purchased Upstate Biotechnologies
Kind of data set: Src kinase test procedure (Elisa format). It counts as biochemical. How it is done:
Inhibitors of p60^c-src (partially purified preparation purchased from Upstate Biotechnologies) tyrosine kinase activity are analyzed in an Elisa format. […] HRP-conjugated anti-phosphotyrosine is used to detect phosphorylated peptide via a color reaction. Conditions recommended by the manufacturer are employed.
The reaction mixture with the phosphorylated peptide is then transferred to a streptavidin-coated microtiter plate (provided in the kit) and allowed to bind for 20 minutes. Unbound peptide and reaction mixture is decanted and the plate is washed with PBS six times. Horseradish peroxidase-conjugated phosphotyrosine antibody supplied in the kit is incubated with the plate for one hour, then decanted. The plate is again washed with PBS six times.

Data set [2] addresses T3, Rat2 fibroblasts transformed with v-Src/Hu c-Src fusion gene (Homo sapiens, UniProt P12931, cells depend on it, form not given).
T3 construct: fused on or other part: The v-Src frame of Rous sarcoma virus: everything outside the catalytic domain, namely the N-terminal unique/SH3/SH2 part; Candidates are Prague C (P00526), then Schmidt-Ruppin A (P00524)
Kind of data set: Anchorage independent Src-transformed fibroblast proliferation test procedure. The conditions noted are these: for GI50: rat2 fibroblasts transformed with v-src/hu c-src fusion gene, read-out: Src TF prolif IC50. The class given is cell-based, rat. The source says:
Anchorage Independent Src-transformed Fibroblast Proliferation Test Procedure: Rat2 fibroblasts stably transformed with a plasmid containing CMV promotor controlled v-Src/Hu c-Src fusion gene in which the catalytic domain of human c-Src is inserted in place of the v-Src catalytic domain in the v-Src gene are used for the measurement of src dependent suspension growth.

The subject of another data set is HT-29 cells. Kind of data set: Cell proliferation test procedure, HT-29 cells. The conditions noted are these: Homo sapiens, read-out: HT-29 prolif IC50. It counts as cell-based. As to the method: HT-29 cells: Compound effectiveness at inhibiting cell proliferation on plastic is performed in a 96-well format by plating 5000 cells per well in appropriate medium on day one, followed by compound addition on day 2 in serial two-fold dilutions. On day five, compound is washed away and medium containing MTS reagent (Promega) is added. Relative cell number is determined by reading the absorbance at 490 nm of a dye produced by an NAD-dependent cellular enzymatic reaction.

T3 sequence (P12931 whole entry, change not shown, the tested form may be a part): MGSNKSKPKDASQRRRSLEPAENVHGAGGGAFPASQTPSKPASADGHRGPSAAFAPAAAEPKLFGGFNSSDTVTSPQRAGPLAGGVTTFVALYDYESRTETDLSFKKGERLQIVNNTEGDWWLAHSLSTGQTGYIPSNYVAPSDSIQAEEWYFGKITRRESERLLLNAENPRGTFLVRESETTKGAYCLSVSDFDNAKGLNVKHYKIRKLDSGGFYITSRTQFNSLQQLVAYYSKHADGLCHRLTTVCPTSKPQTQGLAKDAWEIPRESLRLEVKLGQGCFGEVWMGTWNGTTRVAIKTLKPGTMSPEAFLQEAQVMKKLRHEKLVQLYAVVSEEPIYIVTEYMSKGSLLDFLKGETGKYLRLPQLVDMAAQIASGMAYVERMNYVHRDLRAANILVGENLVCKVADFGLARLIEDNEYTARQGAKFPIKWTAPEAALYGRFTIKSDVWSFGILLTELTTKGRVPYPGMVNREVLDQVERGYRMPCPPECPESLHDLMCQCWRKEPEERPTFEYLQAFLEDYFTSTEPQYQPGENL
T2 sequence (P12931 whole entry, species assumed): as the sequence (P12931 whole entry, change not shown, the tested form may be a part) above

By melting point is commonly meant the temperature of the solid-liquid transition. `N#Cc1cnc2cc3ccccc3cc2c1Nc1ccc(Oc2ccccc2)cc1` [Example 3, 4-(4-Phenoxyanilino)benzo[g]quinoline-3-carbonitrile] returned a melting point of 250 to 251 °C. Besides, in data set [1], the “Mek-Erk IC50” value worked out at 200 nM.

On to `COc1cc(Nc2c(C#N)cnc3c2sc2ccc([N+](=O)[O-])cc23)c(C)cc1Cl` [Example 75], for which the “Src % Inh” value at p60^c-src (Src) (dose 10 μM) came to 0%.

With `COc1cc(Nc2c(C#N)cnc3c2C=C2N=CN=C2C3)c(Br)cc1Cl` [Example 39, 8-(2-Bromo-4-chloro-5-methoxyphenylamino)imidazo[4,5-g]quinoline-7-carbonitrile], the melting point is 257 °C (dec.). In addition, the “Src TF prolif % Inh” value in data set [2] (@ dose 10 μM) is 25%. In data set [1], the “Mek-Erk IC50” value is 1300 nM.

The compound `N#Cc1cnc2c(sc3ccccc32)c1Nc1ccc(Oc2ccccc2)cc1` [Example 69, 4-(4-Phenoxyphenylamino)benzo[4,5]thieno[3,2-b]pyridine-3-carbonitrile] had a melting point of 230 to 233 °C. For the same compound, the “Mek-Erk IC50” value in data set [1] came to 3000 nM.

Usually IC50 stands for the midpoint of a concentration-inhibition curve. Take `COc1cc(Nc2c(C#N)cnc3cc4cc(OCCN5CCN(C)CC5)c(OC)cc4cc23)c(Cl)cc1C` [Example 203]: in data set [2], the GI50 came to 71 nM. This compound returned an IC50 against p60^c-src (Src) of 4.2 nM.

With `CCOc1cc2cc3c(Nc4cc(OC)c(Cl)cc4C)c(C#N)cnc3cc2cc1OCCN(CC(N)=O)CC(N)=O` [Example 194, 2-(Carbamoylmethyl-{2-[4-(4-chloro-5-methoxy-2-methylphenylamino)-3-cyano-7-ethoxybenzo[g]quinolin-8-yloxy]-ethyl}-amino)-acetamide], the melting point was 168 to 170 °C. In data set [2], the GI50 is greater than 10000 nM.

For the compound `N#Cc1cnc2c(c1Nc1ccc(Cl)cc1Br)C=C1N=CN=C1C2` [Example 38, 8-(2-Bromo-4-chlorophenylamino)imidazo[4,5-g]quinoline-7-carbonitrile], the melting point fell in the range of 244 to 246 °C. For the same compound, in data set [2] (@ dose 10 μM), the “Src TF prolif % Inh” value turned out to be 0%. Moreover, the “Mek-Erk IC50” value in data set [1] was 1300 nM.

For `COc1cc(Nc2c(C#N)cnc3cc4cc(OCCN5CCN(C)CC5)c(OC)cc4cc23)c(C)cc1Cl` [Example 133, 4-(4-chloro-5-methoxy-2-methylanilino)-7-methoxy-8-[2-(4-methyl 1-piperazinyl)ethoxy]benzo[g]quinoline-3-carbonitrile], the IC50 in the data set on HT-29 cells was determined as 8600 nM.

Take `CCOc1cc2cc3c(Nc4cc(OC)c(Cl)cc4C)c(C#N)cnc3cc2cc1OCCN1CCOCC1` [Example 191, 4-(4-Chloro-5-methoxy-2-methylanilino)-7-ethoxy-8-[2-(4-morpholinyl)ethoxy]benzo[g]quinoline-3-carbonitrile]: the melting point lay within 201 to 203 °C. Moreover, in data set [2], the GI50 amounted to 22 nM.

Regarding `COc1cc(Nc2c(C#N)cnc3c2C=C2N=CN=C2C3)cc(OC)c1OC` [Example 42, 8-(3,4,5-Trimethoxyanilino)imidazo[4,5-g]quinoline-7-carbonitrile], the melting point is greater than 260 °C. Moreover, the “Src TF prolif % Inh” value in data set [2] (@ dose 0.22 μM) was 50%.

On to `COc1cc(Nc2c(C#N)cnc3nc4cc(OC)c(OC)cc4cc23)c(Cl)cc1Cl` [Example 165, 4-(2,4-Dichloro-5-methoxyanilino)-7,8-dimethoxybenzo[b][1,8]naphthyridine-3-carbonitrile], for which the melting point was 297 °C (dec.). Further, in data set [2], the GI50 is greater than 10000 nM.

Turning to `COc1cc(Nc2c(C#N)cnc3cc4c(cc23)ncn4CCN2CCOCC2)c(C)cc1Cl` [Example 57, 8-(4-Chloro-5-methoxy-2-methylanilino)-3-[2-(4-morpholinyl)ethyl]-3H-imidazo[4,5-g]quinoline-7-carbonitrile], the melting point was 246 to 248 °C. Also, the “Src TF prolif % Inh” value in data set [2] (@ dose 10 μM) is listed as 0%.

As for `COc1cc(Nc2c(C#N)cnc3nc4cc(OCCCl)c(OC)cc4cc23)c(Cl)cc1Cl` [Example 172, 8-(2-Chloroethoxy)-4-(2,4-dichloro-5-methoxyanilino)-7-methoxybenzo[b][1,8]naphthyridine-3-carbonitrile], the melting point is 227 to 230 °C (dec.). For the same compound, the GI50 in data set [2] stood at 1870 nM.

Regarding `COc1cc(Nc2c(C#N)cnc3cc4cc(OCCCN5CCOCC5)c(OC)cc4cc23)c(Cl)cc1Cl` [Example 157, 4-(2,4-Dichloro-5-methoxyphenylamino)-7-methoxy-8-(3-morpholin-4-yl-propoxy)benzo[g]quinoline-3-carbonitrile], the melting point was in the range of 205 to 208 °C. The GI50 in data set [2] is 38 nM.

`N#Cc1cnc2c(c1Nc1ccc(Oc3ccccc3)cc1)C=C1N=CN=C1C2` [Example 44, 8-(4-Phenoxyanilino)imidazo[4,5-g]quinoline-7-carbonitrile]: the melting point is greater than 270 °C. The “Mek-Erk IC50” value in data set [1] was 30 nM.

Consider `COc1cc(Nc2c(C#N)cnc3nc4cc(OCCN5CCOCC5)c(OC)cc4cc23)c(Cl)cc1Cl` [Example 173, 4-(2,4-Dichloro-5-methoxyanilino)-7-methoxy-8-[2-(4-morpholinyl)ethoxy]benzo[b][1,8]naphthyridine-3-carbonitrile], for which the melting point is 242 to 244 °C (dec.). Also, the GI50 in data set [2] is 3740 nM.

As for `COc1ccc(Cl)c(Nc2c(C#N)cnc3c2C=C2N=CN=C2C3)c1` [Example 40, 8-(2-Chloro-5-methoxy-phenylamino)imidazo[4,5-g]quinoline-7-carbonitrile], the melting point was 296 to 298 °C. The “Src TF prolif % Inh” value in data set [2] (@ dose 10 μM) is 0%. In data set [1], the “Mek-Erk IC50” value worked out at 500 nM.

`COc1cc(Nc2c(C#N)cnc3cc4cc(OC)c(OCCN5CCN(C)CC5)cc4cc23)c(Cl)cc1F` [Example 201, 4-(2-Chloro-4-fluoro-5-methoxyanilino)-8-methoxy-7-[2-(4-methyl-1-piperazinyl)ethoxy]benzo[g]quinoline-3-carbonitrile] gave a melting point of 170 to 173 °C. For the same compound, the GI50 in data set [2] amounted to 175 nM.

Take `COc1cc2cc3ncc(C#N)c(Nc4ccc(F)c(Cl)c4)c3cc2cc1OCCN1CCOCC1` [Example 212, 4-(3-Chloro-4-fluoroanilino)-8-methoxy-7-[2-(4-morpholinyl)ethoxy]benzo[g]quinoline-3-carbonitrile]: the melting point was 205 to 210 °C. For the same compound, in data set [2], the GI50 is greater than 10000 nM.

On to `COc1cc(Nc2c(C#N)cnc3cc4cc(OC)c(OCCN5CCOCC5)cc4cc23)c(Cl)cc1F` [Example 209, 4-(2-Chloro-4-fluoro-5-methoxyanilino)-8-methoxy-7-[2-(4-morpholinyl)ethoxy]benzo[g]quinoline-3-carbonitrile], for which the melting point fell in the range of 204 to 214 °C. Moreover, the GI50 in data set [2] worked out at 309 nM.
